Data: patent US10953100B2, “Compounds and therapeutic uses thereof” (priority 2015, dated 2021)
pEC50: −log10 of the molar value.

Target: Anti-alpha galactosyl IgG antibody
Experiment: ELISA assay: streptavidin-captured biotin compound, binding of anti-alpha galactosyl IgG antibody
Design: species or system human
Settings: geometric mean with standard error in brackets; streptavidin plate, anti-alpha galactosyl IgG 0.5 μg/mL; read-out: Concentration at half maximal binding

| pEC50 | Compound |
| --- | --- |
| 7.81 | CC(=O)NC1C(OCCCNC(=O)CCOCCOCCOCCOCCOCCOCCOCCOCCOCCOCCOCCOCCNC(=O)COc2cc(OCC(=O)NCCOCCOCCOCCOCCOCCOCCOCCOCCOCCOCCOCCOCCC(=O)NCCCOC3OC(CO)C(OC4OC(CO)C(O)C(OC5OC(CO)C(O)C(O)C5O)C4O)C(O)C3NC(C)=O)cc(-c3cc(OCC(=O)NCCOCCOCCOCCOCCOCCOCCOCCOCCOCCOCCOCCOCCC(=O)NCCCOC4OC(CO)C(OC5OC(CO)C(O)C(OC6OC(CO)C(O)C(O)C6O)C5O)C(O)C4NC(C)=O)cc(C(=O)NCCNC(=O)CCOCCOCCOCCOCCOCCOCCOCCOCCOCCOCCOCCOCCNC(=O)CCCCC4SCC5NC(=O)NC54)c3)c2)OC(CO)C(OC2OC(CO)C(O)C(OC3OC(CO)C(O)C(O)C3O)C2O)C1O (stereo not drawn) [Example 57] |
| 7.42 | CC(=O)NC1C(OCCCNC(=O)CCOCCOCCOCCOCCNC(=O)COc2cc(OCC(=O)NCCOCCOCCOCCOCCC(=O)NCCCOC3OC(CO)C(OC4OC(CO)C(O)C(OC5OC(CO)C(O)C(O)C5O)C4O)C(O)C3NC(C)=O)cc(-c3cc(OCC(=O)NCCOCCOCCOCCOCCC(=O)NCCCOC4OC(CO)C(OC5OC(CO)C(O)C(OC6OC(CO)C(O)C(O)C6O)C5O)C(O)C4NC(C)=O)cc(C(=O)NCCOCCOCCOCCOCCC(=O)NCCNC(=O)CCCCC4SCC5NC(=O)NC54)c3)c2)OC(CO)C(OC2OC(CO)C(O)C(OC3OC(CO)C(O)C(O)C3O)C2O)C1O (stereo not drawn) [Example 58] |
| 7.67 | CC(=O)NC1C(OCCCNC(=O)CCCNC(=O)CCOCCOCCOCCOCCNC(=O)COc2cc(OCC(=O)NCCOCCOCCOCCOCCC(=O)NCCCC(=O)NCCCOC3OC(CO)C(OC4OC(CO)C(O)C(OC5OC(CO)C(O)C(O)C5O)C4O)C(O)C3NC(C)=O)cc(-c3cc(OCC(=O)NCCOCCOCCOCCOCCC(=O)NCCCC(=O)NCCCOC4OC(CO)C(OC5OC(CO)C(O)C(OC6OC(CO)C(O)C(O)C6O)C5O)C(O)C4NC(C)=O)cc(C(=O)NCCNC(=O)CCCCC4SCC5NC(=O)NC54)c3)c2)OC(CO)C(OC2OC(CO)C(O)C(OC3OC(CO)C(O)C(O)C3O)C2O)C1O (stereo not drawn) [Example 59] |
| 7.62 | CC(=O)NC1C(O)[C@H](O[C@@H]2OC(CO)[C@H](O)C(O[C@H]3OC(CO)[C@H](O)C(O)C3O)C2O)C(CO)O[C@H]1OCCCNC(=O)CCCNC(=O)COc1cc(OCC(=O)NCCCC(=O)NCCCO[C@@H]2OC(CO)[C@@H](O[C@@H]3OC(CO)[C@H](O)C(O[C@H]4OC(CO)[C@H](O)C(O)C4O)C3O)C(O)C2NC(C)=O)cc(-c2cc(OCC(=O)NCCCC(=O)NCCCO[C@@H]3OC(CO)[C@@H](O[C@@H]4OC(CO)[C@H](O)C(O[C@H]5OC(CO)[C@H](O)C(O)C5O)C4O)C(O)C3NC(C)=O)cc(C(=O)NCCNC(=O)CCCC[C@@H]3SC[C@@H]4NC(=O)N[C@@H]43)c2)c1 (stereo partly drawn) [Example 60] |
| 7.52 | CC(=O)N[C@H]1[C@H](OCCCNC(=O)COc2cc(OCC(=O)NCCCO[C@@H]3O[C@H](CO)[C@@H](O[C@@H]4O[C@H](CO)[C@H](O)[C@H](O[C@H]5O[C@H](CO)[C@H](O)[C@H](O)[C@H]5O)[C@H]4O)[C@H](O)[C@H]3NC(C)=O)cc(-c3cccc(-c4cccc(C(=O)NCCNC(=O)CCCC[C@@H]5SC[C@@H]6NC(=O)N[C@@H]65)c4)c3)c2)O[C@H](CO)[C@@H](O[C@@H]2O[C@H](CO)[C@H](O)[C@H](O[C@H]3O[C@H](CO)[C@H](O)[C@H](O)[C@H]3O)[C@H]2O)[C@@H]1O [Example 61] |
| 7.68 | CC(=O)N[C@H]1[C@H](OCCCNC(=O)COc2cc(OCC(=O)NCCCO[C@@H]3O[C@H](CO)[C@@H](O[C@@H]4O[C@H](CO)[C@H](O)[C@H](O[C@H]5O[C@H](CO)[C@H](O)[C@H](O)[C@H]5O)[C@H]4O)[C@H](O)[C@H]3NC(C)=O)cc(-c3cc(C(=O)NCCNC(=O)CCCC[C@@H]4SC[C@@H]5NC(=O)N[C@@H]54)cc(-c4cc(OCC(=O)NCCCO[C@@H]5O[C@H](CO)[C@@H](O[C@@H]6O[C@H](CO)[C@H](O)[C@H](O[C@H]7O[C@H](CO)[C@H](O)[C@H](O)[C@H]7O)[C@H]6O)[C@H](O)[C@H]5NC(C)=O)cc(OCC(=O)NCCCO[C@@H]5O[C@H](CO)[C@@H](O[C@@H]6O[C@H](CO)[C@H](O)[C@H](O[C@H]7O[C@H](CO)[C@H](O)[C@H](O)[C@H]7O)[C@H]6O)[C@H](O)[C@H]5NC(C)=O)c4)c3)c2)O[C@H](CO)[C@@H](O[C@@H]2O[C@H](CO)[C@H](O)[C@H](O[C@H]3O[C@H](CO)[C@H](O)[C@H](O)[C@H]3O)[C@H]2O)[C@@H]1O [Example 62] |
